Results taken from patent publication US11266686B2, “Metal complexes and methods of treatment” (PROCYPRA THERAPEUTICS LLC, priority 2013, dated 2022).

Test: Pharmacokinetics in mice after oral administration, plasma and brain by LC/MS/MS
Conditions: 30 mg/kg CuXTSM API oral; for Brain AUC0-24h / Brain AUC0-inf / Brain Cmax / Brain Tmax / Brain t½ (number of time points): mouse brain; for Brain t½ (number of time points) / Plasma t½ (number of time points): bracket = number of time points; for Plasma Ke / Plasma MRT / Plasma AUC0-24h / Plasma AUC0-inf / Plasma Cmax / Plasma Tmax / Plasma t½ (number of time points): mouse plasma; for Plasma AUC0-24h / Plasma AUC0-inf / Plasma Cmax / Plasma Tmax: CuATSM in SSV, NCDs in water
Description: CuATSM was suspended in “Standard Suspension Vehicle” (SSV), consisting of 0.9% (w/v) NaCl, 0.5% (w/v) sodium carboxymethylcellulose, 0.5% (v/v) benzyl alcohol, and 0.4% (v/v) Tween 80 in deionized water. All other test compounds were suspended in sterile water. Samples were prepared by adding one of the compounds to the liquid vehicle (water or SSV) in a vial and then vortexing the mixture for 3 min with a stir bar inside. If the powdered sample was not completely wetted or not completely suspended, the sample was vortexed for another minute. If wetting was still incomplete, the vial was sonicated until a fully wetted suspension was obtained. Between doses, the sample was stirred on medium speed and then vortexed for an additional 20 s immediately before the next dose was removed from the vial. All dosing was completed from a single preparation of the suspension within 60 min of adding the compound to water or SSV.
Mice were deprived of pelleted food overnight, during which time 10% dextrose, as Dextroput, was provided in tap water, after which the test items were administrated orally by gavage in water or SSV. […] The blood samples were kept on ice after sampling and centrifuged at +4° C., 1800×g for 5 min to prepare plasma. Plasma samples were extracted and transferred into pre-labelled Eppendorf test tubes (50 μl exact in one vial, and the remaining in a second vial) and frozen at −20° C. The samples were transported on dry ice to the analysis site. Following blood sampling, mice were euthanized by cervical dislocation, and then brains were collected through opened skulls. The brains were weighed and placed in test tubes and placed on water ice. Phosphate-buffered saline (PBS, pH 7.4), 4 ml per 1 g of brain tissue, was added to the test tube and brains were homogenized by using Ultra-Turrax T25 homogenizer/S25N-10G (Setting 2, 9500 rpm, approximately 10 s). The homogenate was frozen at −20° C. immediately after homogenization. The samples were transported on dry ice to the analysis site.
Dosed mice were studied in triplicate for each of the seven time points, totaling 21 mice dosed for each studied compound. Plasma samples and brain homogenates from four untreated animals were also obtained. The plasma samples were thawed at room temperature (RT), mixed with 2-fold volume of acetonitrile, shaken and centrifuged for 10 min at 13 000×g (Heraeus Pico 17 centrifuge), after which supernatants were transferred into glass vials. The brain homogenate samples were mixed with 2-fold volume of acetonitrile:methanol, shaken, ultrasonicated for 20 min, and centrifuged for 10 min at 13 000×g (Heraeus Pico 17 centrifuge), after which supernatants were transferred into glass vials. […] Quality control (QC) samples were prepared for concentrations 10, 100 and 1000 ng/ml in plasma or brain homogenates.
Elution was with gradient of 0.5% formic acid/acetonitrile (99:1) increased step-wise to (5:95).
The pharmacokinetic parameters for study compounds in plasma and brain were calculated using standard non-compartmental methods. The elimination phase half-life (t½) was calculated by least-squares regression analysis of the terminal linear part of the log concentration-time curve. […] The maximum concentration (Cmax) and the time to Cmax (Tmax) were derived directly from the concentration data. Mean Residence Time, MRT, and elimination rate constant, Ke, were also calculated from the concentration vs. time data of plasma samples.

Row | Brain:plasma-ratio (Cmax-based) (mouse) | Structure (SMILES) | Brain AUC0-24h | Brain AUC0-inf | Brain Cmax | Brain Tmax | Brain t½ (number of time points) | Plasma Ke | Plasma MRT | Plasma AUC0-24h | Plasma AUC0-inf | Plasma Cmax | Plasma Tmax | Plasma t½ (number of time points)
1 | – | CNC1=NN=C(C)C(C)=NN=C(NC)[S][Cu][S]1.O=C(O)CC(O)(CC(=O)O)C(=O)O [CuATSM:citric acid (1:1)] | 15435 ng·min/g | 15563 ng·min/g | 77.0 ng/g | 1 h | 218 (4) min | 0.0034 min⁻¹ | 5.25 h | 8292 ng·min/mL | 8366 ng·min/mL | 14.5 ng/mL | 1 h | 204 (3) min
2 | 2.1 | CNC1=NN=CC(C)=NN=C(NC)[S][Cu][S]1.O=C1NS(=O)(=O)c2ccccc21.O=C1NS(=O)(=O)c2ccccc21 [CuPTSM:saccharin (1:2)] | 62832 ng·min/g | 72025 ng·min/g | 189 ng/g | 0.5 h | 487 (2) min | 0.0016 min⁻¹ | 7.9 h | 60004 ng·min/mL | 68278 ng·min/mL | 91.5 ng/mL | 1 h | 439 (2) min
